Source: patent US10618918B2, “Substituted boronic acids as antimicrobials” (priority 2015, dated 2020)

What was measured:
[1] = system: KP1004 KPC-2; experiment: Biapenem potentiation (MPC@1), strain KP1004 KPC-2; format: cell-based; conditions: minimum BLI concentration inhibiting growth with biapenem 1 μg/mL; tested up to 40 μg/mL
Experimental: (§1) Biapenem was present in the test medium at 1 μg/mL. […] Table 3 summarizes the BLI potency of biapenem potentiation (MPC@1) for two strains overexpressing class A (KPC) and class D (OXA-48) carbapenemases. Biapenem MIC for each strain is also shown.

[2] = system: KP1086 OXA-48; experiment: Biapenem potentiation (MPC@1), strain KP1086 OXA-48; format: cell-based; conditions: minimum BLI concentration inhibiting growth with biapenem 1 μg/mL; tested up to 40 μg/mL
Experimental: as §1

[3] = system: AB1053 OXA-72; experiment: Meropenem potentiation (MPC@8), strain AB1053 OXA-72; format: cell-based, Acinetobacter baumannii; conditions: minimum BLI concentration inhibiting growth with meropenem 8 μg/mL; tested up to 20 μg/mL
[4] = system: AB1054 OXA-23; experiment: Meropenem potentiation (MPC@8), strain AB1054 OXA-23; format: cell-based, Acinetobacter baumannii; conditions: minimum BLI concentration inhibiting growth with meropenem 8 μg/mL; tested up to 20 μg/mL
[5] = target: T1, purified class A, C and D enzymes (β-lactamases) (Acinetobacter baumannii, UniProt Q9L4P2); experiment: biochemical; format: biochemical; conditions: purified OXA-23; nitrocefin (NCF) as reporter substrate
T1 construct: rows headed: Ki (OXA-23, NCF), uM; other: purified OXA-23; nitrocefin (NCF) as reporter substrate
T1 sequence (Q9L4P2 whole entry): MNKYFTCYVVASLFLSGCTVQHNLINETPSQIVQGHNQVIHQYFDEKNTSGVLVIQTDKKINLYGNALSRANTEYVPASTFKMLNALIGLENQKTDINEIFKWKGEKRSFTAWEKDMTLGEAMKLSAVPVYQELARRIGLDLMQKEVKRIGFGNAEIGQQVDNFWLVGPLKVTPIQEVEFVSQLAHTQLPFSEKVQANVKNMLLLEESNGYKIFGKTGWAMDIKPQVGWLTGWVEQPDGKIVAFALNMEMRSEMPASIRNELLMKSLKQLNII

[6] = target: purified class A, C and D enzymes (β-lactamases) (Enterobacter cloacae, UniProt P05364); experiment: biochemical; format: biochemical; conditions: purified P99; nitrocefin (NCF) as reporter substrate
Sequence of purified class A, C and D enzymes (β-lactamases) (Enterobacter cloacae, UniProt P05364) (P05364 21-381): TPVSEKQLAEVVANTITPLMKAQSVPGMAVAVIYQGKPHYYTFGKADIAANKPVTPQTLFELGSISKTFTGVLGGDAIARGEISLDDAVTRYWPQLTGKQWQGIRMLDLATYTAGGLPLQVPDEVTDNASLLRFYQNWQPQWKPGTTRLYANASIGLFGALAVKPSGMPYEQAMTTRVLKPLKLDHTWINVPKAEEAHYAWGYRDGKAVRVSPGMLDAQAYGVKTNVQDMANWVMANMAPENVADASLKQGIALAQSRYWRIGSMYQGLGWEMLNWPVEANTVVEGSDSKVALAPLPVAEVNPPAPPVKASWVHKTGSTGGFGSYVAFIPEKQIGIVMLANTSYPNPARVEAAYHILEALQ

[7] = target: purified class A, C and D enzymes (β-lactamases) (Escherichia coli, UniProt Q9L5C7); experiment: biochemical; format: biochemical; conditions: purified CTX-M-14; nitrocefin (NCF) as reporter substrate
Sequence of purified class A, C and D enzymes (β-lactamases) (Escherichia coli, UniProt Q9L5C7) (Q9L5C7 entry or part of it): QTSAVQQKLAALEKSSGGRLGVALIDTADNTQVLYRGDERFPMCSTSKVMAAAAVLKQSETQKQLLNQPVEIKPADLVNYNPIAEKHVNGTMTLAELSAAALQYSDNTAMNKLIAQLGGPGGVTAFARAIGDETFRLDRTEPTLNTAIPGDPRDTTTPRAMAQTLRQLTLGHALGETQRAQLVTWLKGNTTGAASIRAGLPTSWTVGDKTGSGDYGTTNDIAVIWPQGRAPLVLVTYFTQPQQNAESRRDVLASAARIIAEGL

[8] = target: purified class A, C and D enzymes (β-lactamases) (Klebsiella pneumoniae, UniProt Q6XEC0); experiment: biochemical; format: biochemical; conditions: purified OXA-48; nitrocefin (NCF) as reporter substrate
[9] = target: purified class A, C and D enzymes (β-lactamases) (Klebsiella pneumoniae, UniProt Q9F663); experiment: biochemical; format: biochemical; conditions: purified KPC-2; nitrocefin (NCF) as reporter substrate
[10] = target: T2, purified class A, C and D enzymes (β-lactamases) (UniProt P0AD64, L31Q/G234S/E235K, species not given); experiment: biochemical; format: biochemical; conditions: purified SHV-12; nitrocefin (NCF) as reporter substrate; read-out: Ki (SHV-12, NCF)
T2 construct: Ki (SHV-12, NCF), uM; other: purified SHV-12; nitrocefin (NCF) as reporter substrate
T2 sequence (P0AD64 1-286 L31Q/G234S/E235K): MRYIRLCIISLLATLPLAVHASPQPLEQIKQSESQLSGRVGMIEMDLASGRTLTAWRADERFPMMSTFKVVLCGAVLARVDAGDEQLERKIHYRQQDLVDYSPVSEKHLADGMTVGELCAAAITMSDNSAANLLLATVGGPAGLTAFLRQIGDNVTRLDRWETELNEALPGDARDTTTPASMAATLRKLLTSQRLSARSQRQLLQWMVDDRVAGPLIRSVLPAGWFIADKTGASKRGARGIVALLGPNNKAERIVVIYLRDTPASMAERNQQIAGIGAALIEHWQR

[11] = system: PAM1032/KPC-2; experiment: Biapenem potentiation MPC64 in PAM1032/KPC-2 (efflux proficient, overexpresses MexAB-OprM); format: cell-based, Pseudomonas aeruginosa; conditions: BLI concentration decreasing biapenem MIC 64-fold, from 32 μg/ml to 0.5 μg/ml; efflux proficient strain
Experimental: (§2) Efflux of BLIs from Pseudomonas aeruginosa by the MexAB-OprM efflux pump was also evaluated. The plasmid expressing the gene encoding KPC-2 was introduced into two strains of P. aeruginosa, PAM1032 and PAM 1154 that overexpressed or lacked MexAB-OprM, respectively. […] Potency of BLIs to potentiate biapenem in these strains was determined.

[12] = system: PAM1154/KPC-2; experiment: Biapenem potentiation MPC64 in PAM1154/KPC-2 (efflux deficient, lacks MexAB-OprM); format: cell-based, Pseudomonas aeruginosa; conditions: BLI concentration decreasing biapenem MIC 64-fold, from 32 μg/ml to 0.5 μg/ml; efflux deficient strain
Experimental: as §2

[13] = system: ECL1002; experiment: Aztreonam potentiation (MPC@4), strain ECL1002; conditions: minimum BLI concentration inhibiting growth with aztreonam 4 μg/mL; tested up to 40 μg/mL
[14] = system: ec308 SHV-5; experiment: Aztreonam potentiation (MPC@4), strain ec308 SHV-5; conditions: minimum BLI concentration inhibiting growth with aztreonam 4 μg/mL; tested up to 40 μg/mL
[15] = system: ec302 TEM-10; experiment: Aztreonam potentiation (MPC@4), strain ec302 TEM-10; conditions: minimum BLI concentration inhibiting growth with aztreonam 4 μg/mL; tested up to 40 μg/mL
[16] = system: KP1004 KPC-2; experiment: Aztreonam potentiation (MPC@4), strain KP1004 KPC-2; conditions: minimum BLI concentration inhibiting growth with aztreonam 4 μg/mL; tested up to 40 μg/mL
[17] = system: EC1010 CMY-6; experiment: Aztreonam potentiation (MPC@4), strain EC1010 CMY-6; conditions: minimum BLI concentration inhibiting growth with aztreonam 4 μg/mL; tested up to 40 μg/mL
[18] = system: KP1010 SHV-12; experiment: Aztreonam potentiation (MPC@4), strain KP1010 SHV-12; conditions: minimum BLI concentration inhibiting growth with aztreonam 4 μg/mL; tested up to 40 μg/mL
[19] = system: KP1009 CTX-M-15; experiment: Aztreonam potentiation (MPC@4), strain KP1009 CTX-M-15; conditions: minimum BLI concentration inhibiting growth with aztreonam 4 μg/mL; tested up to 40 μg/mL
[20] = system: KP1005 CTX-M-14; experiment: Tigemonam potentiation (MPC@4), strain KP1005 CTX-M-14; conditions: minimum BLI concentration inhibiting growth with tigemonam 4 μg/mL; tested up to 40 μg/mL

O=C(O)c1cccc2c1OB(O)CC2 [Compound 5, 2-HYDROXY-3,4-DIHYDRO-1,2-BENZOXABORININE-8-CARBOXYLIC ACID]
BPM MPC1 KP1004 KPC-2 [1]: X (X = MPC@1 ≤ 5 μg/mL) | BPM MPC1 OXA-48 KP1086 [2]: X (X = MPC@1 ≤ 5 μg/mL) | MPM MPC8 AB1053 OXA-72 [3]: Z (Z = MPC@1 > 20 μg/mL) | MPM MPC8 AB1054 OXA-23 [4]: Y (Y = 5 μg/mL < MPC@1 ≤ 20 μg/mL) | Ki [5]: 100 to 1000 nM | Ki (P99, NCF), uM [6]: X (X = Ki ≤ 0.1 μM) | Ki (CTX-M-14, NCF), uM [7]: X (X = Ki ≤ 0.1 μM) | Ki (OXA-48, NCF), uM [8]: X (X = Ki ≤ 0.1 μM) | Ki (KPC-2, NCF), uM [9]: X (X = Ki ≤ 0.1 μM) | Ki [10]: < 100 nM | PAM1032/KPC-2 Biapenem MPC64 [11]: 20 | PAM1154/KPC-2 Biapenem MPC64 [12]: 0.3 | AZT MPC4 ECL1002 [13]: Z (Z = MPC@4 > 20 μg/mL) | AZT MPC4 SHV-5 ec308 [14]: Z (Z = MPC@4 > 20 μg/mL) | AZT MPC4 TEM-10 ec302 [15]: Z (Z = MPC@4 > 20 μg/mL) | AZT MPC4 KPC-2 KP1004 [16]: X (X = MPC@4 ≤ 5 μg/mL) | AZT MPC4 CMY-6 EC1010 [17]: Y (Y = 5 μg/mL < MPC@4 ≤ 20 μg/mL) | AZT MPC4 SHV-12 KP1010 [18]: Y (Y = 5 μg/mL < MPC@4 ≤ 20 μg/mL) | AZT MPC4 CTX-M-15 KP1009 [19]: Y (Y = 5 μg/mL < MPC@4 ≤ 20 μg/mL) | TIG MPC4 CTX-M-14 KP1005 [20]: Z (Z = MPC@4 > 20 μg/mL)

O=C(O)c1cccc2c1OB(O)CN2S(=O)(=O)Cc1ccccc1 [Compound 4, 4-(BENZYLSULFONYL)-2-HYDROXY-3,4-DIHYDRO-2H-BENZO[E][1,4,2]OXAZABORININE-8-CARBOXYLIC ACID]
BPM MPC1 KP1004 KPC-2 [1]: X (X = MPC@1 ≤ 5 μg/mL) | BPM MPC1 OXA-48 KP1086 [2]: Z (Z = MPC@1 > 20 μg/mL) | Ki (P99, NCF), uM [6]: X (X = Ki ≤ 0.1 μM) | Ki (CTX-M-14, NCF), uM [7]: X (X = Ki ≤ 0.1 μM) | Ki (OXA-48, NCF), uM [8]: X (X = Ki ≤ 0.1 μM) | Ki (KPC-2, NCF), uM [9]: X (X = Ki ≤ 0.1 μM) | Ki [10]: < 100 nM | PAM1032/KPC-2 Biapenem MPC64 [11]: >80 | PAM1154/KPC-2 Biapenem MPC64 [12]: 5 | AZT MPC4 ECL1002 [13]: Z (Z = MPC@4 > 20 μg/mL) | AZT MPC4 SHV-5 ec308 [14]: Z (Z = MPC@4 > 20 μg/mL) | AZT MPC4 TEM-10 ec302 [15]: Z (Z = MPC@4 > 20 μg/mL) | AZT MPC4 KPC-2 KP1004 [16]: Z (Z = MPC@4 > 20 μg/mL) | AZT MPC4 CMY-6 EC1010 [17]: Z (Z = MPC@4 > 20 μg/mL) | AZT MPC4 SHV-12 KP1010 [18]: Z (Z = MPC@4 > 20 μg/mL) | AZT MPC4 CTX-M-15 KP1009 [19]: Z (Z = MPC@4 > 20 μg/mL) | TIG MPC4 CTX-M-14 KP1005 [20]: Z (Z = MPC@4 > 20 μg/mL)

O=C(Cc1cccs1)NC1CB(O)Oc2c(C(=O)O)cccc21 (centres unmarked) [Compound 1, 2-HYDROXY-4-(2-(THIOPHEN-2-YL)ACETAMIDO)-3,4-DIHYDRO-2H-BENZO[E][1,2]OXABORININE-8-CARBOXYLIC ACID]
BPM MPC1 KP1004 KPC-2 [1]: X (X = MPC@1 ≤ 5 μg/mL) | BPM MPC1 OXA-48 KP1086 [2]: Y (Y = 5 μg/mL < MPC@1 ≤ 20 μg/mL) | Ki (P99, NCF), uM [6]: X (X = Ki ≤ 0.1 μM) | Ki (CTX-M-14, NCF), uM [7]: X (X = Ki ≤ 0.1 μM) | Ki (OXA-48, NCF), uM [8]: X (X = Ki ≤ 0.1 μM) | Ki (KPC-2, NCF), uM [9]: X (X = Ki ≤ 0.1 μM) | Ki [10]: < 100 nM | PAM1032/KPC-2 Biapenem MPC64 [11]: 40 | PAM1154/KPC-2 Biapenem MPC64 [12]: 2.5 | AZT MPC4 ECL1002 [13]: Y (Y = 5 μg/mL < MPC@4 ≤ 20 μg/mL) | AZT MPC4 SHV-5 ec308 [14]: X (X = MPC@4 ≤ 5 μg/mL) | AZT MPC4 TEM-10 ec302 [15]: X (X = MPC@4 ≤ 5 μg/mL) | AZT MPC4 KPC-2 KP1004 [16]: X (X = MPC@4 ≤ 5 μg/mL) | AZT MPC4 CMY-6 EC1010 [17]: X (X = MPC@4 ≤ 5 μg/mL) | AZT MPC4 SHV-12 KP1010 [18]: X (X = MPC@4 ≤ 5 μg/mL) | AZT MPC4 CTX-M-15 KP1009 [19]: X (X = MPC@4 ≤ 5 μg/mL) | TIG MPC4 CTX-M-14 KP1005 [20]: X (X = MPC@4 ≤ 5 μg/mL)

Nc1nnc(C(=O)NC2CB(O)Oc3c(C(=O)O)cccc32)s1 (centres unmarked) [Compound 2, 4-(5-AMINO-1,3,4-THIADIAZOLE-2-CARBOXAMIDO)-2-HYDROXY-3,4-DIHYDRO-2H-BENZO[E][1,2]OXABORININE-8-CARBOXYLIC ACID]
BPM MPC1 KP1004 KPC-2 [1]: X (X = MPC@1 ≤ 5 μg/mL) | BPM MPC1 OXA-48 KP1086 [2]: X (X = MPC@1 ≤ 5 μg/mL) | Ki (P99, NCF), uM [6]: X (X = Ki ≤ 0.1 μM) | Ki (CTX-M-14, NCF), uM [7]: X (X = Ki ≤ 0.1 μM) | Ki (OXA-48, NCF), uM [8]: X (X = Ki ≤ 0.1 μM) | Ki (KPC-2, NCF), uM [9]: X (X = Ki ≤ 0.1 μM) | Ki [10]: < 100 nM | PAM1032/KPC-2 Biapenem MPC64 [11]: 20 | PAM1154/KPC-2 Biapenem MPC64 [12]: 1.25 | AZT MPC4 ECL1002 [13]: X (X = MPC@4 ≤ 5 μg/mL) | AZT MPC4 SHV-5 ec308 [14]: X (X = MPC@4 ≤ 5 μg/mL) | AZT MPC4 TEM-10 ec302 [15]: X (X = MPC@4 ≤ 5 μg/mL) | AZT MPC4 KPC-2 KP1004 [16]: X (X = MPC@4 ≤ 5 μg/mL) | AZT MPC4 CMY-6 EC1010 [17]: X (X = MPC@4 ≤ 5 μg/mL) | AZT MPC4 SHV-12 KP1010 [18]: X (X = MPC@4 ≤ 5 μg/mL) | AZT MPC4 CTX-M-15 KP1009 [19]: X (X = MPC@4 ≤ 5 μg/mL) | TIG MPC4 CTX-M-14 KP1005 [20]: X (X = MPC@4 ≤ 5 μg/mL)
